Values of other authors, collected in patent US4384994A, “Renin inhibitory peptides” (Merck & Co., Inc., priority 1981, dated 1983).

Assays:
hog renin = details: nephrectomized rats, after injection of hog renin; Gross et al. 1971
pepsin = pepsin (Homo sapiens, UniProt P0DJD8); details: Umezawa et al. 1970
Chain of pepsin (P0DJD8 63-388): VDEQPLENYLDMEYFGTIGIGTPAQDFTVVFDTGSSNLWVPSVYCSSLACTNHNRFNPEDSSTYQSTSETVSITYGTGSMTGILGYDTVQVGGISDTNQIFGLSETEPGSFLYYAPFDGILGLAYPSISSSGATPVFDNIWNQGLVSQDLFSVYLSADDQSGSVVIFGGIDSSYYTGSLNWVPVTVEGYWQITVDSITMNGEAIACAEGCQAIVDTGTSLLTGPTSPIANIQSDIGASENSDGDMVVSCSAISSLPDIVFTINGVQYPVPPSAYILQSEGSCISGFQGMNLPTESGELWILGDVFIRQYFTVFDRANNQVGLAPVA

- inhibition of pepsin (pepsin): inhibitor
Substance: pepstatin
- blood pressure in vivo (hog renin): reduce blood pressure
